Our source for the IC50 and TI values is ChEMBL document CHEMBL1126814, “Oxindole N-Methyl-D-Aspartate (NMDA) antagonists” (Bioorg Med Chem Lett, 1993).

The first experiment deals with T1, Adrenergic receptor alpha-1 (Rattus norvegicus, UniProt P15823+P23944+P43140).
T1 sequence (P15823 whole entry): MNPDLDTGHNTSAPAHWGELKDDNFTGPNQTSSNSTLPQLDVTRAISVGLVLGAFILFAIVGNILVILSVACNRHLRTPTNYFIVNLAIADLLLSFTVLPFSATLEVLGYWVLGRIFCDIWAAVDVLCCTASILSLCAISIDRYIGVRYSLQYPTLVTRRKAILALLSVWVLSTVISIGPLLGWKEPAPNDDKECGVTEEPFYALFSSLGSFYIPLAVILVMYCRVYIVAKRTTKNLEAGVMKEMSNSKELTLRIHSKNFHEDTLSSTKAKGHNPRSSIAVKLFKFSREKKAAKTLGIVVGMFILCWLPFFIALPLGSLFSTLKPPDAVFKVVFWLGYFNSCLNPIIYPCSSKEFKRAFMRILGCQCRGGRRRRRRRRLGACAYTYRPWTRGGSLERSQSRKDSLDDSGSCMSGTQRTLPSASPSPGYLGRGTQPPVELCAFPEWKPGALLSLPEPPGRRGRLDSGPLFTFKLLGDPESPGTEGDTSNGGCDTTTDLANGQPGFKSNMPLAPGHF
T1 sequence (P23944 whole entry): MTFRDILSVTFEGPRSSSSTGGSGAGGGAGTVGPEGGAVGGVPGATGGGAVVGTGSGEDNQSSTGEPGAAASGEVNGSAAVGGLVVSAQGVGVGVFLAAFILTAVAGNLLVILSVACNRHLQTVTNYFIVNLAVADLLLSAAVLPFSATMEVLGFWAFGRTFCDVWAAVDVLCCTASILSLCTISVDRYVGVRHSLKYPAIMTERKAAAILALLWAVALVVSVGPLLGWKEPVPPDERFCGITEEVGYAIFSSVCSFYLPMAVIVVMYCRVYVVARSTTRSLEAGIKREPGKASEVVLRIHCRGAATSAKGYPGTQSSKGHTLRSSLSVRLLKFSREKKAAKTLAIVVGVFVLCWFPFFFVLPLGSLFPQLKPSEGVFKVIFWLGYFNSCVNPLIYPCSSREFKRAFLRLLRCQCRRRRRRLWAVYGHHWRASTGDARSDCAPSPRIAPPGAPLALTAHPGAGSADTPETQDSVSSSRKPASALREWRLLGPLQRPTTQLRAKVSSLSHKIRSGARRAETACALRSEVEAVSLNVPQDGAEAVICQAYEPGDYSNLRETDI
T1 sequence (P43140 whole entry): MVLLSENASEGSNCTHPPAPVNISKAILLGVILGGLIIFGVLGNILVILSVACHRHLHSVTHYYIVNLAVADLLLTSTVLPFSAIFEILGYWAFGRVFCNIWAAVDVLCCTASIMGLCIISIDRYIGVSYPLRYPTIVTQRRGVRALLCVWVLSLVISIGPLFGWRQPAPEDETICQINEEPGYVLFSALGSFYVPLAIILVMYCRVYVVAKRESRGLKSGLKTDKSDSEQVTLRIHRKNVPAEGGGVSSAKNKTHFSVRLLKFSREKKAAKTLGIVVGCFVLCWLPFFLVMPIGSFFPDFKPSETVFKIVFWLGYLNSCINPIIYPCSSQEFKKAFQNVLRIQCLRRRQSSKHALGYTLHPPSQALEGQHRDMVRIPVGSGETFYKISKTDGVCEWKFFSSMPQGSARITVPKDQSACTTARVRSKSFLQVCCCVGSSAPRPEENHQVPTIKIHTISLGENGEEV
In words: Tested for the Alpha-1 adrenergic receptor affinity in a standard radioligand binding assay with [3H]- prazosin. The format is protein assay.
Usually IC50 stands for the midpoint of a concentration-inhibition curve. Low values mean greater potency in that assay, high ones weaker potency in that assay. `C[C@@H]([C@H](O)c1ccc(O)cc1)N1CCC(Cc2ccccc2)CC1` [(R,S)-IFENPRODIL]: the IC50 came out at 0.1 µM. The compound `C[C@@H]([C@H](O)c1ccc2c(c1)CC(=O)N2)N1CCC(Cc2ccccc2)CC1` came in with an IC50 of 0.1 µM. `C[C@@H]([C@@H](O)c1ccc2c(c1)CC(=O)N2)N1CCC(c2ccccc2)CC1` showed an IC50 of 0.349 µM. On to `C[C@@H]([C@@H](O)c1ccc2c(c1)CC(=O)N2)N1CCC(Cc2ccccc2)CC1`, for which the IC50 was 0.71 µM. `OC(CN1CCC(Cc2ccc(F)cc2)CC1)c1ccc(Cl)cc1` (stereo not drawn) [ELIPRODIL] registered an IC50 of 0.8 µM. As to `O=C1Cc2cc(C(O)CN3CCC(Cc4ccc(F)cc4)CC3)ccc2N1` (stereo not drawn), the IC50 worked out at 0.183 µM.

System in another experiment: not listed separately
The experiment in a line: Ratio of the IC50s of the two assays (alpha1 adrenoceptor binding assay/GT functional assay) used as an estimate of Therapeutic Index.
Regarding `C[C@@H]([C@H](O)c1ccc(O)cc1)N1CCC(Cc2ccccc2)CC1` [(R,S)-IFENPRODIL], the TI was 0.38. `C[C@@H]([C@H](O)c1ccc2c(c1)CC(=O)N2)N1CCC(Cc2ccccc2)CC1`: the TI was 0.4.

On to `C[C@@H]([C@@H](O)c1ccc2c(c1)CC(=O)N2)N1CCC(c2ccccc2)CC1`, for which the TI was 8.7. On to `C[C@@H]([C@@H](O)c1ccc(O)cc1)N1CCC(Cc2ccccc2)CC1`, for which the TI was 15.3. Take `C[C@@H]([C@@H](O)c1ccc2c(c1)CC(=O)N2)N1CCC(Cc2ccccc2)CC1`: the TI is 6.4.

Take `OC(CN1CCC(Cc2ccc(F)cc2)CC1)c1ccc(Cl)cc1` (stereo not drawn) [ELIPRODIL]: the TI was 0.8. As to `O=C1Cc2cc(C(O)CN3CCC(Cc4ccc(F)cc4)CC3)ccc2N1` (stereo not drawn), the TI is 0.3.
